Key:
corn = assay: Test B pan test in Sassafras sandy loam soil, pre- and postemergence; type: in vivo, Zea mays; conditions: scale 0 to 100
Excerpt: (§1) Three round pans (25 cm diameter by 12.5 cm deep) were filled with Sassafras sandy loam soil. One pan was planted with nutsedge (Cyperus rotundus) tubers, crabgrass (Digitaria sanguinalis), sicklepod (Cassia obtusifolia), jimsonweed (Datura stramonium), velvetleaf (Abutilon theophrasti), lambsquarters (Chenopodim album), rice (Oryza sativa) and teaweed (Sida spinosa). The second pot was planted with green foxtail (Setaria viridis), cocklebur (Xantium pensyivanicum), morningglory (lpomoea hederacea), cotton (Gossypium hirsutum), johnsongrass (Sorghum halepense), barnyardgrass (Echinochloa crusgalli), corn (Zea mays), soybean (Glycine max) and giant foxtail (Setaria faberi). The third pot was planted with wheat (Triticum aestivum), barley (Hordeum vulgare), wild buckwheat (Polgonum convolvulus L.), cheatgrass (Bromus secalinus L.), sugarbeet (Beta vulgaris), wild oats (Avena fatua), viola (Viola arvensis), blackgrass (Alopecurus myosuroides), and rape (Brassica napus). The plants were grown for approximately fourteen days, then sprayed postemergence with the chemicals dissolved in a non-phytotoxic solvent.
(§2) Three round pans (25 cm diameter by 12.5 cm deep) were filled with Sassafras sandy loam soil. One pan was planted with nutsedge tubers, crabgrass, sicklepod, jimsonweed, velvetleaf, lambsquarters, rice and teaweed. The second pot was planted with green foxtail, cocklebur, morningglory, cottom, johnsongrass, . barnyardgrass, corn, soybean and giant foxtail. The third pot was planted with wheat, barley, wild buckwheat, cheatgrass, sugarbeet, wild oat, viola, blackgrass and rape. The three pans were sprayed preemer gence with the chemicals dissolved in a non-phytotoxic solvent.
(§3) Treated plants and controls were maintained in the greenhouse for 24 days, then all rated plants were compared to controls and visually rated for plant response.
(§4) A dash (-) response means no test.

giant foxtail = assay: Test A greenhouse herbicide test, pre- and postemergence; type: in vivo, Setaria faberii; conditions: rated after sixteen days
Excerpt: (§5) Seeds of crabgrass (Digitaria spp.), barnyardgrass (Echinochloa crusgalli), cheatgrass (Bromus Secalinus), giant foxtail (Setaria faberii), wild oats (Avena fatua), velvetleaf (Abutilon theophrasti), morningglory (Ipomoea spp. , cocklebur (Xanthium pensylvanicum). sorghum, corn, barley, soybean, sugarbeet, cotton, rice, wheat and purple nutsedge (Cyperus rotundus) tubers were planted and treated preemergence with the test chemicals dissolved in a non-phytotoxic solvent. At the same time, these crop and weed species were treated with a soil/foliage application. At the time of treatment, the plants ranged in height from 2 to 18 cm. Treated plants and controls were maintained in a greenhouse for sixteen days, after which all species were compared to controls and visually rated for response to treatment. The ratings, summarized in Table A, are based on a numerical scale extending from 0 = no injury, to 10 = complete kill. The accompanying descriptive symbols have the following meanings: • B = burn; • C = chlorosis/necrosis; • D = defoliation; • E = emergence inhibition; • G = growth retardation; • H = formative effect; • U = unusual pigmentation; • X = axillary stimulation; • S = albinism; and • 6Y = abscised buds or flowers.

wild oats = assay: Test B pan test in Sassafras sandy loam soil, pre- and postemergence; type: in vivo, Avena fatua; conditions: scale 0 to 100
Excerpt: as §1, §2, §3, §4

crabgrass [1] = assay: Test A greenhouse herbicide test, pre- and postemergence; type: in vivo, Digitaria spp.; conditions: PREEMERGENCE; RATE 0.01 KG/HA; rated after sixteen days
Excerpt: as §5

morningglory [2] = assay: as above; type: in vivo, Ipomoea spp.; conditions: rated after sixteen days
Excerpt: as §5

wheat = assay: Test B pan test in Sassafras sandy loam soil, pre- and postemergence; type: in vivo, Triticum aestivum; conditions: scale 0 to 100
Excerpt: as §1, §2, §3, §4

jimsonweed = assay: as above; type: in vivo, Datura stramonium; conditions: scale 0 to 100
Excerpt: as §1, §2, §3, §4

teaweed = assay: as above; type: in vivo, Sida spinosa; conditions: scale 0 to 100
Excerpt: as §1, §2, §3, §4

barnyardgrass = assay: as above; type: in vivo, Echinochloa crusgalli; conditions: scale 0 to 100
Excerpt: as §1, §2, §3, §4

sicklepod = assay: as above; type: in vivo, Cassia obtusifolia; conditions: scale 0 to 100
Excerpt: as §1, §2, §3, §4

morningglory [3] = assay: as above; type: in vivo, lpomoea hederacea; conditions: scale 0 to 100
Excerpt: as §1, §2, §3, §4

johnsongrass = assay: as above; type: in vivo, Sorghum halepense; conditions: scale 0 to 100
Excerpt: as §1, §2, §3, §4

crabgrass [4] = assay: as above; type: in vivo, Digitaria sanguinalis; conditions: scale 0 to 100
Excerpt: as §1, §2, §3, §4

cotton = assay: as above; type: in vivo, Gossypium hirsutum; conditions: scale 0 to 100
Excerpt: as §1, §2, §3, §4

Structure (SMILES): CCOC(=O)c1c(CC#N)cccc1S(=O)(=O)NC(=O)Nc1nc(OC)cc(OC)n1 [Compound 3, 2-(cyanomethyl)-6 [[(4,6-dimethoxypyrimidin-2-yl)-aminocarbonyl]aminosulfonyl]benzoic acid, ethyl ester]
- CORN response rating (corn; POSTEMERGENCE, RATE 0001 G/HA): 90
- CORN response rating (corn; POSTEMERGENCE, RATE 0004 G/HA): 100
- CORN response rating (corn; POSTEMERGENCE, RATE 0016 G/HA): 100
- CORN response rating (corn; POSTEMERGENCE, RATE 0062 G/HA): 100
- CORN response rating (corn; PREEMERGENCE, RATE 0004 G/HA): 0
- CORN response rating (corn; PREEMERGENCE, RATE 0016 G/HA): 30
- CORN response rating (corn; PREEMERGENCE, RATE 0062 G/HA): 60
- GIANT FOXTAIL visual rating of response to treatment (giant foxtail; POSTEMERGENCE, RATE 0.01 KG/HA): 9C
- GIANT FOXTAIL visual rating of response to treatment (giant foxtail; POSTEMERGENCE, RATE 0.05 KG/HA): 10C
- GIANT FOXTAIL visual rating of response to treatment (giant foxtail; PREEMERGENCE, RATE 0.01 KG/HA): 5G
- WILD OATS response rating (wild oats; POSTEMERGENCE, RATE 0001 G/HA): 0
- WILD OATS response rating (wild oats; POSTEMERGENCE, RATE 0004 G/HA): 30
- WILD OATS response rating (wild oats; POSTEMERGENCE, RATE 0016 G/HA): 50
- WILD OATS response rating (wild oats; POSTEMERGENCE, RATE 0062 G/HA): 80
- WILD OATS response rating (wild oats; PREEMERGENCE, RATE 0004 G/HA): 20
- WILD OATS response rating (wild oats; PREEMERGENCE, RATE 0016 G/HA): 40
- WILD OATS response rating (wild oats; PREEMERGENCE, RATE 0062 G/HA): 60
- CRABGRASS visual rating of response to treatment (crabgrass [1]): 4G
- MORNING GLORY visual rating of response to treatment (morningglory [2]; POSTEMERGENCE, RATE 0.01 KG/HA): 10C
- MORNING GLORY visual rating of response to treatment (morningglory [2]; POSTEMERGENCE, RATE 0.05 KG/HA): 10C
- MORNING GLORY visual rating of response to treatment (morningglory [2]; PREEMERGENCE, RATE 0.01 KG/HA): 2G
- MORNING GLORY visual rating of response to treatment (morningglory [2]; PREEMERGENCE, RATE 0.05 KG/HA): 9G
- WHEAT response rating (wheat; POSTEMERGENCE, RATE 0001 G/HA): 30
- WHEAT response rating (wheat; POSTEMERGENCE, RATE 0004 G/HA): 50
- WHEAT response rating (wheat; POSTEMERGENCE, RATE 0016 G/HA): 70
- WHEAT response rating (wheat; POSTEMERGENCE, RATE 0062 G/HA): 100
- WHEAT response rating (wheat; PREEMERGENCE, RATE 0004 G/HA): 0
- WHEAT response rating (wheat; PREEMERGENCE, RATE 0016 G/HA): 30
- WHEAT response rating (wheat; PREEMERGENCE, RATE 0062 G/HA): 70
- JIMSONWEED response rating (jimsonweed; POSTEMERGENCE, RATE 0001 G/HA): 30
- JIMSONWEED response rating (jimsonweed; POSTEMERGENCE, RATE 0004 G/HA): 60
- JIMSONWEED response rating (jimsonweed; POSTEMERGENCE, RATE 0016 G/HA): 100
- JIMSONWEED response rating (jimsonweed; POSTEMERGENCE, RATE 0062 G/HA): 100
- JIMSONWEED response rating (jimsonweed; PREEMERGENCE, RATE 0004 G/HA): 0
- JIMSONWEED response rating (jimsonweed; PREEMERGENCE, RATE 0016 G/HA): 0
- JIMSONWEED response rating (jimsonweed; PREEMERGENCE, RATE 0062 G/HA): 30
- TEAWEED response rating (teaweed; POSTEMERGENCE, RATE 0001 G/HA): 30
- TEAWEED response rating (teaweed; POSTEMERGENCE, RATE 0004 G/HA): 50
- TEAWEED response rating (teaweed; POSTEMERGENCE, RATE 0016 G/HA): 70
- TEAWEED response rating (teaweed; POSTEMERGENCE, RATE 0062 G/HA): 100
- TEAWEED response rating (teaweed; PREEMERGENCE, RATE 0004 G/HA): 0
- TEAWEED response rating (teaweed; PREEMERGENCE, RATE 0016 G/HA): 0
- TEAWEED response rating (teaweed; PREEMERGENCE, RATE 0062 G/HA): 0
- BARNYARD GRASS response rating (barnyardgrass; POSTEMERGENCE, RATE 0001 G/HA): 70
- BARNYARD GRASS response rating (barnyardgrass; POSTEMERGENCE, RATE 0004 G/HA): 100
- BARNYARD GRASS response rating (barnyardgrass; POSTEMERGENCE, RATE 0016 G/HA): 100
- BARNYARD GRASS response rating (barnyardgrass; POSTEMERGENCE, RATE 0062 G/HA): 100
- BARNYARD GRASS response rating (barnyardgrass; PREEMERGENCE, RATE 0004 G/HA): 30
- BARNYARD GRASS response rating (barnyardgrass; PREEMERGENCE, RATE 0016 G/HA): 50
- BARNYARD GRASS response rating (barnyardgrass; PREEMERGENCE, RATE 0062 G/HA): 80
- CASSIA response rating (sicklepod; POSTEMERGENCE, RATE 0001 G/HA): 30
- CASSIA response rating (sicklepod; POSTEMERGENCE, RATE 0004 G/HA): 50
- CASSIA response rating (sicklepod; POSTEMERGENCE, RATE 0016 G/HA): 70
- CASSIA response rating (sicklepod; POSTEMERGENCE, RATE 0062 G/HA): 90
- CASSIA response rating (sicklepod; PREEMERGENCE, RATE 0004 G/HA): 0
- CASSIA response rating (sicklepod; PREEMERGENCE, RATE 0016 G/HA): 0
- CASSIA response rating (sicklepod; PREEMERGENCE, RATE 0062 G/HA): 0
- MORNINGGLORY response rating (morningglory [3]; POSTEMERGENCE, RATE 0001 G/HA): 30
- MORNINGGLORY response rating (morningglory [3]; POSTEMERGENCE, RATE 0004 G/HA): 50
- MORNINGGLORY response rating (morningglory [3]; POSTEMERGENCE, RATE 0016 G/HA): 70
- MORNINGGLORY response rating (morningglory [3]; POSTEMERGENCE, RATE 0062 G/HA): 90
- MORNINGGLORY response rating (morningglory [3]; PREEMERGENCE, RATE 0004 G/HA): 0
- MORNINGGLORY response rating (morningglory [3]; PREEMERGENCE, RATE 0016 G/HA): 0
- MORNINGGLORY response rating (morningglory [3]; PREEMERGENCE, RATE 0062 G/HA): 30
- JOHNSONGRASS response rating (johnsongrass; POSTEMERGENCE, RATE 0001 G/HA): 30
- JOHNSONGRASS response rating (johnsongrass; POSTEMERGENCE, RATE 0004 G/HA): 60
- JOHNSONGRASS response rating (johnsongrass; POSTEMERGENCE, RATE 0016 G/HA): 100
- JOHNSONGRASS response rating (johnsongrass; POSTEMERGENCE, RATE 0062 G/HA): 100
- JOHNSONGRASS response rating (johnsongrass; PREEMERGENCE, RATE 0004 G/HA): 0
- JOHNSONGRASS response rating (johnsongrass; PREEMERGENCE, RATE 0016 G/HA): 30
- JOHNSONGRASS response rating (johnsongrass; PREEMERGENCE, RATE 0062 G/HA): 80
- CRABGRASS response rating (crabgrass [4]; POSTEMERGENCE, RATE 0001 G/HA): 0
- CRABGRASS response rating (crabgrass [4]; POSTEMERGENCE, RATE 0004 G/HA): 30
- CRABGRASS response rating (crabgrass [4]; POSTEMERGENCE, RATE 0016 G/HA): 50
- CRABGRASS response rating (crabgrass [4]; POSTEMERGENCE, RATE 0062 G/HA): 70
- CRABGRASS response rating (crabgrass [4]; PREEMERGENCE, RATE 0004 G/HA): 0
- CRABGRASS response rating (crabgrass [4]; PREEMERGENCE, RATE 0016 G/HA): 30
- CRABGRASS response rating (crabgrass [4]; PREEMERGENCE, RATE 0062 G/HA): 70
- COTTON response rating (cotton; POSTEMERGENCE, RATE 0001 G/HA): 30
- COTTON response rating (cotton; POSTEMERGENCE, RATE 0004 G/HA): 100
- COTTON response rating (cotton; POSTEMERGENCE, RATE 0016 G/HA): 100
- COTTON response rating (cotton; POSTEMERGENCE, RATE 0062 G/HA): 100
- COTTON response rating (cotton; PREEMERGENCE, RATE 0004 G/HA): 0
- COTTON response rating (cotton; PREEMERGENCE, RATE 0016 G/HA): 0
- COTTON response rating (cotton; PREEMERGENCE, RATE 0062 G/HA): 30
